Laboratory results published in patent publication US10952963B2, “Ready to use liquid RECK formulation” (QuVa Pharma, Inc., priority 2018, dated 2021).

Conditions: for pH that provides for acceptable stability: pH 4.8
Procedure: Multiple antioxidants, chelating agents, and buffers were evaluated to stabilize both epinephrine and ketorolac, which include: sodium bisulfite, sodium metabisulfite, EDTA Sodium Dihydrate (i.e., EDTA Sodium), citric acid, sodium phosphate dibasic, and PEG 400. Solution pH values were evaluated from a pH of 3.9-6.0.

pH range of maximum stability	pH at which substantial degradation occurs	pH that provides for acceptable stability	pH at which rate of degradation increases	pH at which substance tended to degrade	sodium metabisulfite concentration in the presence of which the substance degrades substantially	SMILES
3-4						Clc1cccc(Cl)c1N=C1NCCN1 [clonidine]
3-4	greater than 4	about 4.8				CNC[C@H](O)c1ccc(O)c(O)c1 [epinephrine]
6-7		about 4.8	less than 5	less than 4.5	≥ 1 mg/mL	O=C(c1ccccc1)c1ccc2n1CCC2C(=O)O (stereo not shown) [ketorolac]
3-4						CCCN1CCCC[C@H]1C(=O)Nc1c(C)cccc1C [ropivacaine]
